One compound from patent US20110144323A1, “AMORPHOUS AND CRYSTALLINE FORMS OF SMILAGENIN AND ITS HYDRATES” (PHYTOPHARM PLC, priority 2004, published 2011) can be followed below.

The nature of the series: Vapour sorption studies. The series is classed as physicochemical. An excerpt: As is well known, a channel hydrate is a hydrate in which the crystal lattice of the molecule forms a channel or cage enclosing a void which can wholly or partially accommodate water (or solvent) molecules. The stoichiometric (molar) ratio of smilagenin:water at any particular time will depend on such factors as the humidity of the surrounding atmosphere, as the water molecules are generally free to enter or leave the void.

As to `C[C@@H]1CC[C@@]2(OC1)O[C@H]1C[C@H]3[C@@H]4CC[C@@H]5C[C@@H](O)CC[C@]5(C)[C@H]4CC[C@]3(C)[C@H]1[C@@H]2C` [Crystalline Form VI, smilagenin], the “hygroscopicity in vapour sorption study” value (FIG. 11) is “hygroscopic”. The “water adsorbed, molar equivalents” value (at high humidity, i.e. a dihydrate) is listed as “about 2 mol. eq. water”. Further, where the note is “at high humidity, water reversibly lost at low humidity (FIG. 11)”, the “water adsorbed in vapour sorption study” value is on record as “up to 9 % water”.
